# Measurements from patent US20180369186A1, “METHOD FOR MODULATING AUTOPHAGY AND APPLICATIONS THEREOF” (JAWAHARLAL NEHRU CENTRE FOR ADVANCED SCIENTIFIC RESEARCH, priority 2015, published 2018).
# Values joined by “and” are separate entries in the source; they are usually repeats but may differ in a detail not shown here. Identical values can stand only once.
# Tests used:
# α-synuclein toxicity = assay: S. cerevisiae α-synuclein toxicity model, growth assay; format: cell-based; conditions: WT α-synuclein-EGFP strain; 50 μM
# Method: To screen small molecule library LOPAC1280 in S. cerevisiae SNCA toxicity model, working plates containing 50 μM drugs in 1.5% DMSO (190 compounds/plate) are prepared in a 384 well format. WT SNCA-GFP with or without small molecules and untreated WT GFP are grown under optimized conditions (80 μl, 30° C. and 420 rpm) for 36 h in a plate reader (Varioskan Flash, Thermo Scientific) in duplicates with automatic absorbance (A600) recording every 20 min. Growth curves of untreated WT GFP and WT SNCA-GFP strains are plotted and mid to late exponential phase time point of untreated WT GFP strain is chosen as reference for data analysis. Its corresponding time point of untreated and drug treated WT SNCA-GFP strains are plotted separately in a box plot. Small molecules that rescued the growth lag by ≥3 SD units of untreated WT SNCA-GFP strain are considered as ‘Hits’.
# Growth assays: In a 384 well plate, appropriate yeast strains are seeded (A600˜0.07) with and without drugs and incubated (80 μl, 30° C. and 420 rpm) in a multiplate reader (Varioskan Flash, Thermo Scientific) for 48 h with automatic absorbance (A600) recording every 20 min. Growth curves are plotted and analyzed using GraphPad Prism.
# Induction of α-synuclein-EGFP aggregates: To induce α-synuclein-EGFP aggregates, the corresponding strains are inoculated in SD-Ura medium, Secondary culture is inoculated from primary inoculum and incubated till A600 reaches 0.8/ml. Cells are washed twice with sterile water and aggregates are induced by adding SG-Ura for 12-16 h.
# To screen small molecule library LOPAC^1280 in S. cerevisiae α-synuclein toxicity model, working plates containing 50 μM drugs (small molecule) in 1.5% DMSO (190 compounds/plate) are prepared in a 384 well format. WT α-synuclein-EGFP with and without small molecules and untreated WT EGFP are grown under optimized conditions (80 μl, 30° C. and 420 rpm) for 36 h in a plate reader (Varioskan Flash, Thermo Scientific) in duplicates with automatic absorbance (A600) recording every 20 min.
# Growth curves of untreated WT EGFP and WI α-synuclein-EGFP strains are plotted and mid to late exponential phase time point of untreated WT EGFP strain is chosen as reference for data analysis. Its corresponding time point of untreated and drug treated WT α-synuclein-EGFP strains are plotted separately in a box plot.
# Appropriate yeast strains are seeded (A600 ˜0.07) with or without drugs in a 384-well plate and incubated (420 rpm, 30° C. and 80 μl) in a multiplate reader (Varioskan Flash, Thermo Scientific) for 48 h that records absorbance (A600) automatically for every 20 min. Growth curves are plotted using GraphPad Prism.
# [1] = test system: TH+ dopaminergic neurons in SNpc; assay: MPTP mouse model: TH+ dopaminergic neurons in SNpc (stereology, densitometry, volume); format: in vivo, mice
# Method: As described by Vernice Jackson-Lewis & Serge Przedborski (2007), 23.4 mg/kg MPTP.HCl (equivalent to 20 mg/kg free base) in 10 ml/kg body wt. of saline is administered intraperitoneally (i.p.) for 4 times at 2 h intervals.
# All mice are sacrificed 9 days post MPTP administration and brains are processed for immunohistochemistry.
# Mice are anaesthetized using Halothane BP (Piramal Healthcare) inhalation and perfused intracardially with normal saline followed by 4% PFA in 0.1 M phosphate buffer, pH 7.4. Brains are removed quickly and post-fixed with 4% PFA for 24 h-48 h at 4° C. Following cryoprotection in 15% and 30% sucrose, 40 μm thick coronal cryosections of midbrain are collected serially on gelatinized slides. Immunoperoxidase labelling protocol as identical to that reported. Briefly, endogenous peroxidase is quenched using H2O2 (0.1%) in methanol (70%), followed by blocking of non-specific staining by buffered solution (3%) of bovine serum albumin for 4 h at room temperature. Sections are incubated with TH primary antibody (1:500) followed by biotin conjugated secondary antibody (1:200 dilution, Vector Laboratories). Tertiary labelling is performed with avidin-biotin complex solution (1:100, Vector Laboratories). Staining is visualized using 3′-3′-diaminobenzidine (0.05%) as a chromogen in a solution of 0.1M acetate imidazole buffer (pH 7.4) and H2O2 (0.1%). Negative controls are processed identically, except that primary antibody is replaced with dilution buffer.
# As described by Y. Fu et al., SNpcis delineated using the 4× objective of Olympus BX61 Microscope (Olympus) equipped with Stereo Investigator Software Version 7.2 (MicroBrightField). Stereological quantification is performed using optical fractionator probe with slight modifications(P. A. Alladi et al.). Briefly, every sixth midbrain section containing SNpc is chosen and TH^+ cells are counted under 100× objective, with a regular grid interval of 22500 μm^2 (x=150 μm, y=150 μm) and counting frame with an area of 3600 μm^2 (x=60 μm, y=60 μm) (FIG. 10B). Mounted thickness is determined at every fifth site, averaging to 25 μm. Guard zone 4 μm is applied on either side, thus providing 17 μm of z-dimension within optical dissector. The quantification is performed starting with first anterior appearance of TH^+ neurons in SNpc to caudal most part. The SNpc volume is determined by planimetry (FIG. 10C) and total numbers of neurons according to mean measured thickness are noted.
# High magnification images of TH stained nigral DAergic neurons, captured for offline assessment of Tyrosine Hydroxylase (TH) enzyme expression levels=used. Expression intensity is measured using a Windows based image analysis system (Q Win V3, Leica Systems). Cumulative mean is derived from the values obtained from sampling, approximately 200 DAergic neurons per animal. Intensity output is measured on a grey scale of 0-255, where 0 equals intense staining and 255 means absence of staining.
# The mice are distributed into three groups' viz., vehicle, MPTP and MPTP+XCT 790 injected respectively. The vehicle group receives intraperitoneal injections of dimethyl sulfoxide (DMSO) injections i.e. the solvent. The MPTP group receives 23.4 mg/kg MPTP.HCl in 10 ml/kg body wt. of saline is administered intraperitoneally for 4 times at 2 h interval. The MPTP+XCT 790 group mice are injected with 5 mg/kg body wt, of XCT 790 dissolved in DMSO, alongside the first MPTP injection. […]
# DAergic neurons in SNpc = assay: MPTP mouse model: LC3 and A11 puncta in DAergic neurons of SNpc; format: in vivo; conditions: MPTP treated cohort
# Method: The sequential immunolabeling procedure is used to co-label the TH and LC3 and/or A11. First, the midbrain sections are equilibrated with 0.1 M PBS (pH 7.4) for 10 min and then incubated with buffered bovine serum albumin (3%) for 4 h to block non-specific epitopes. Then, the sections are incubated in rabbit anti-LC3 antibody (1:1000) and/or anti-oligomer antibody (A11, 1:1000) for 72 h at 4° C. After subsequent washes, the sections are incubated in corresponding fluorescent secondary antibody (1:200) at 4° C., overnight.
# Co-labeling with TH is performed on the same sections using rabbit anti-TH antibody (1:500), followed by secondary labeling. PBST (0.01 M, pH 7.4) is used as both working and washing buffer. Sections are then mounted using Vectashield hardset mounting medium.
# [2] = test system: lace plant (Aponogeton madagascariensis) cells; assay: Lace plant leaf MDC staining of punctate structures; format: cell-based; conditions: 2 hours; 5 μM wortmannin, 50 μM Bay11, 1 μM concanamycin A, rapamycin, 50 μM ZPCK; control 0.99±0.12
# Method: Axenic lace plant cultures are grown in magenta boxes and prepared according to Gunawardena et al. Leaves in the window stage are removed from the corm and rinsed thoroughly with distilled water prior to being sectioned into 2 mm^2 pieces. For starvation treatments, window stage leaves are removed from the plant, placed in distilled water and kept in the dark overnight.
# Leaf sections are stained with monodansylcadaverine (MDC; 300 μM) (Sigma, D4008) and simultaneously treated with autophagy modulators for 2 hours in the dark. (1 hour vacuum infiltration at 15 psi). Treatment times, along with stain and modulator applications are optimized using concentration gradients followed by microscopy. The optimized concentrations are 5 μM rapamycin (Enzo Life Sciences (BML A275-0005), 5 μM wortmannin (Santa Cruz Biotechnology, sc-3505), 1 μM concanamycin A (Santa Cruz Biotechnology, sc-202111), 50 μM Bay 11 (Sigma, B5556) and 50 μM ZPCK (Sigma, 860794).
# Tissue sections are then rinsed and mounted in distilled water prior to being scanned using a Nikon Eclipse Ti confocal microscope (Nikon 40X/1.30, Plan Fluor, 405 nm excitation and 450/30 nm emission). Areoles in the early phases of PCD are scanned to avoid cellular debris. The mean number of puncta are quantified for each treatment group with a minimum of four independent experiments using NIS Elements Advanced Research software. Additionally, starvation treatment leaves are also exposed to 5 μM, wortmannin, 50 μM Bay11 and 50 μM ZPCK treatments and then qualitatively assessed via confocal microscopy.
# Atg8 = Atg8 immunolocalization in lace plant; format: cell-based, Aponogeton madagascariensis; conditions: two hours; same modulator concentrations as MDC; control 0.90±0.08
# Method: Whole leaves are treated for two hours prior to fixation in 100% Methanol at 37° C. and then hydrophilized to 20% methanol by adding distilled water at 60° C. every two minutes for 32 minutes. Samples are then sectioned and placed on a multiwall slide and allowed to air dry for 10 minutes to facilitate membrane permeabilization. Blocking is done for 30 minutes at 37° C. with 4% low fat milk powder in 1× microtubule stabilization buffer MTSB (Modified 2× MTSB stock solution: 15 g PIPES, 1.9 g EDTA, 1.22 g MgSO4*7H2O and 2.5 g KOH—pH 7.0). Primary antibody incubation for anti-rabbit ATG8 (Agrisera, AS14 2769) is done at a 1:1000 dilution in 1× MTSB for 30 minutes at 37° C. Samples are then washed for 5 minutes, 3 times with 1× MTSB. Secondary antibody incubation with Goat anti-rabbit Dylight 488 (Agrisera AS09 633) at a 1:2000 dilution in 1× MTSB is done for 30 minutes at 37° C. and then samples are rinsed as above. Tissues are mounted in Mowiol 4-88 solution (Sigma, 81381) and scanned via confocal microscopy as mentioned above. The mean number of puncta per cell is determined using maximum intensity projections (MIPs) for each replicate. The total number of cells within a field of view are counted manually and the number of puncta are counted automatically using ImageJ.
SMILES,mean number of punctate structures per cell (MDC) [2],mean number of Atg8 puncta per cell (Atg8),further results
"N#C/C(=C\c1ccc(-c2cc(Cl)ccc2Cl)o1)C(=O)Nc1cccc2ncccc12 [Agk2, reference compound]",,,rescue of growth lag due to α-synuclein toxicity (α-synuclein toxicity): rescue growth lag
"CN1CC=C(c2ccccc2)CC1 [MPTP, methyl-4-phenyl-1,2,3,6-tetrahydropyridine, reference compound]",,,"reduction in number and health of DA neurons, compared to control ([1]; MPTP 23 mg/kg): ~3 fold; dopaminergic neurons in SNpc lost, MPTP vs Vehicle ([1]; MPTP 23.4 mg/kg, 4 times): ~68%; increase of A11 puncta / aggregates, placebo/vehicle vs MPTP (DAergic neurons in SNpc): ~7 fold and ~6.5 fold"
C/C=C/[C@H]1O[C@@](O)([C@@H](C)[C@H](O)[C@H](C)[C@H]2OC(=O)/C(OC)=C/C(C)=C/[C@@H](C)[C@@H](O)[C@@H](CC)[C@@H](O)[C@H](C)C/C(C)=C/C=C/[C@@H]2OC)C[C@@H](O[C@H]2C[C@@H](O)[C@H](OC(N)=O)[C@@H](C)O2)[C@@H]1C [concanamycin A],1.91±0.13,2.43±0.29,
CO[C@H]1C[C@@H]2CC[C@@H](C)[C@@](O)(O2)C(=O)C(=O)N2CCCC[C@H]2C(=O)O[C@H]([C@H](C)C[C@@H]2CC[C@@H](O)[C@H](OC)C2)CC(=O)[C@H](C)/C=C(\C)[C@@H](O)[C@@H](OC)C(=O)[C@H](C)C[C@H](C)/C=C/C=C/C=C/1C [rapamycin],2.31±0.25,3.52±0.09,
COC[C@H]1OC(=O)c2coc3c2[C@@]1(C)C1=C(C3=O)[C@@H]2CCC(=O)[C@@]2(C)C[C@H]1OC(C)=O [wortmannin],0.26±0.03,0.27±0.025,
